The values below come from PMC7080406 (eLife, 2020).

Read-outs that look alike come from different tables or passages of the source.

Assay [1] deals with T1, MT1 (Homo sapiens, UniProt P48039).
T1 construct: expressed in transfected cells; host or cells: HEK293T (ATCC CRL-11268), transient transfection
Kind of assay: [3H]melatonin competition radioligand binding, MT1 membranes. Particulars: read-out: MT1 pKi ± SEM (converted). How it is done:
(§1) The Radioligand binding assays were conducted by the NIMH Psychoactive Drug Screening Program (PDSP). The NIMH PDSP is directed by Bryan L. Roth, MD, PhD, at the University of North Carolina at Chapel Hill, North Carolina, and Program Officer Jamie Driscoll at NIMH, Bethesda, MD. Binding assay procedures and protocols are also available online at http://pdspdb.unc.edu/pdspWeb/?site=assays. […] Assay plates were sealed and incubated for 4 hr at 37°C in a humidified incubator until harvesting. Plates were harvested using vacuum filtration onto 0.3% polyethyleneimine pre-soaked 96-well Filtermat A (PerkinElmer) and washed three times with cold wash buffer (50 mM Tris, pH 7.4). Filters were dried and melted with a scintillation cocktail (Meltilex, PerkinElmer). Radioactivity was counted using a Wallac TriLux Microbeta counter (PerkinElmer). Results were analyzed using GraphPad Prism 7.0.

Assay [2] has as its target T1, MT1. Kind of assay: GloSensor Gi/o-mediated cAMP production inhibition assay, MT1. The format is cell-based. Particulars: for EC50: Gi/o mediated. How it is done: (§2) Briefly, HEK293 T cells (as above) were transiently co-transfected with receptor (MT1 or MT2) and GloSensor cAMP (Promega) plasmids overnight, plated in Poly-L-Lysine coated 384-well white clear bottom plates in DMEM + 1% dialyzed FBS. Cells were used for assays at a minimum of 6 hr after plating. Culture medium was first removed and cells were stimulated with drugs in assay buffer (1x HBSS, 20 mM HEPES, 1 mg/ml BSA, 0.1 mg/ml ascorbic acid, pH 7.4) for 15 min at room temperature (this and all the following steps), followed by addition of a mixture of isoproterenol (final of 100 nM) and luciferin (final of 1 mM) for Gi/o-cAMP production inhibition assays and luciferin (final of 1 mM) for Gs-cAMP production assays. The plates were counted for luminescence after 25 min in a luminescence plate reader. Results were analyzed using GraphPad Prism 7.0.
(In general: Changes in cAMP serve as a functional read-out for many G protein-coupled receptors.)

Assay [3] concerns the target T2, MT1 wildtype (WT) (Homo sapiens, UniProt P48039).
T2 construct: host or cells: HTLA cells (HEKT based)
Briefly: Tango β-arrestin recruitment assay, MT1 wildtype. The format is cell-based. Particulars: normalized individually (basal 0%, maximum 100%); mean ± SEM, minimum of 3 assays; read-out: pEC50, Tango, MT1 WT (converted). How it is done: (§3) In brief, HTLA cells were transiently transfected with receptor TANGO DNA constructs overnight in DMEM with 10% FBS. Transfected cells were then plated into poly-L-Lys coated 384-well plates using DMEM supplemented with 1% dialyzed FBS. After 6 hr incubation, drug dilutions, prepared in DMEM with 1% dFBS, were added for incubation overnight (16–20 hr). Medium and drug solutions were removed, Bright-Glo reagent (20 uL/well) was added for luminescence counting 20 min later. Results were analyzed in GraphPad Prism 7.0.
In general terms: Arrestin recruitment assays detect the binding of arrestin to an activated receptor.

Assay [4] concerns the target T3, MT1 N162Q mutant receptor (Homo sapiens, UniProt P48039, N162Q).
T3 construct: expressed in transfected cells; host or cells: HTLA cells (HEKT based)
Briefly: Tango β-arrestin recruitment assay, MT1 N162Q mutant. The format is cell-based. Particulars: normalized individually (basal 0%, maximum 100%); mean ± SEM, minimum of 3 assays; read-out: pEC50, Tango, MT1 N162Q (converted). How it is done: as §3

Assay [5] concerns the target T4, MT1 Y281F mutant receptor (Homo sapiens, UniProt P48039, Y281F).
T4 construct: expressed in transfected cells; host or cells: HTLA cells (HEKT based)
Kind of assay: Tango β-arrestin recruitment assay, MT1 Y281F mutant. The format is cell-based. How it is done: as §3

Assay [6] has as its target T5, 5-HT1A (Homo sapiens, UniProt P08908).
T5 construct: expressed in transfected cells; host or cells: HEK293T, transient transfection (NIMH PDSP)
T5 sequence (P08908 1-422): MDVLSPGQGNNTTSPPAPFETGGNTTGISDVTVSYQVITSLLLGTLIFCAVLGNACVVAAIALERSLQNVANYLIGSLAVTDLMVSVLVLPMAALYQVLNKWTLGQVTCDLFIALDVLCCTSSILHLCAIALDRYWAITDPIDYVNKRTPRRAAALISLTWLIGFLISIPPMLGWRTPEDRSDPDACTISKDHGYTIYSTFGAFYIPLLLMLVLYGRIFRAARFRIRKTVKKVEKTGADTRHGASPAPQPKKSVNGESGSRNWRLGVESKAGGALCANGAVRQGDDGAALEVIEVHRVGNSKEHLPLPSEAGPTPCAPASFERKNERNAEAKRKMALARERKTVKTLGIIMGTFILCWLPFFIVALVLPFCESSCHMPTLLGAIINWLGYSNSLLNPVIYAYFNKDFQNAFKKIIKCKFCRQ
Briefly: Off-target radioligand binding, 5-HT1A. How it is done: as §1

For assay [7], the target named is T6, 5-HT1D (Homo sapiens, UniProt P28221).
T6 construct: expressed in transfected cells; host or cells: HEK293T, transient transfection (NIMH PDSP)
Kind of assay: Off-target radioligand binding, 5-HT1D. How it is done:
as §1

Assay [8] has as its target T7, 5-HT7A (Homo sapiens, UniProt P34969).
T7 construct: expressed in transfected cells; host or cells: HEK293T, transient transfection (NIMH PDSP)
Kind of assay: Off-target radioligand binding, 5-HT7A. How it is done: as §1

For assay [9], the target named is T7, 5-HT7A. Kind of assay: Gs-mediated cAMP production assay (GloSensor). The assay is classed as cell-based. Particulars: weak partial agonist; receptor not given.
In assay [10] the target is T8, MT2 (Homo sapiens, UniProt P49286).
T8 sequence (P49286 1-362): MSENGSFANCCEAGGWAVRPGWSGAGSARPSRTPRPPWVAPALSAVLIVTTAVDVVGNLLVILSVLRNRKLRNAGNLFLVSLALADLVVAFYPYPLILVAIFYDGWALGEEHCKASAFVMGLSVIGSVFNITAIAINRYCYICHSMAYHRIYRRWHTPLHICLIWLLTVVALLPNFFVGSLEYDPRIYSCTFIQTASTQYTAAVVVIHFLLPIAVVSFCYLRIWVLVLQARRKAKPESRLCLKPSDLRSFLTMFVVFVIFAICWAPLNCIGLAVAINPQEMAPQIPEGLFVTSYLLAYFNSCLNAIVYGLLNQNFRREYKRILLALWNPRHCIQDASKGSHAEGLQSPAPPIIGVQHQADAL
Kind of assay: GloSensor Gi/o-mediated cAMP production inhibition assay, MT2. The assay is classed as cell-based. The arrangement: expressed in transfected cells; host or cells: HEK293T (ATCC CRL-11268), transient transfection. Particulars: for EC50: Gi/o mediated. How it is done: as §2

[11] abbreviates: ligand efficiency (based on EC50).

T1 sequence (P48039 whole entry): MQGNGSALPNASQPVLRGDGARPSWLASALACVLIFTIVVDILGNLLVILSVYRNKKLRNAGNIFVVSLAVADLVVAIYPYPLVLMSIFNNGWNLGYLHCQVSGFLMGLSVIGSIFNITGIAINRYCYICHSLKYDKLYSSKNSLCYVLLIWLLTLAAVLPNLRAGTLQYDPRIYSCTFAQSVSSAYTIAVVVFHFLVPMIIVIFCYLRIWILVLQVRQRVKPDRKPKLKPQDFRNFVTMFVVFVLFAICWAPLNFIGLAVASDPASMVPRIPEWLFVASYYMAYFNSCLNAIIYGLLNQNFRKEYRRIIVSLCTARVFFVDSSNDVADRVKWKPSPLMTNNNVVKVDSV
T7 sequence (P34969 1-445 isoform P34969-2): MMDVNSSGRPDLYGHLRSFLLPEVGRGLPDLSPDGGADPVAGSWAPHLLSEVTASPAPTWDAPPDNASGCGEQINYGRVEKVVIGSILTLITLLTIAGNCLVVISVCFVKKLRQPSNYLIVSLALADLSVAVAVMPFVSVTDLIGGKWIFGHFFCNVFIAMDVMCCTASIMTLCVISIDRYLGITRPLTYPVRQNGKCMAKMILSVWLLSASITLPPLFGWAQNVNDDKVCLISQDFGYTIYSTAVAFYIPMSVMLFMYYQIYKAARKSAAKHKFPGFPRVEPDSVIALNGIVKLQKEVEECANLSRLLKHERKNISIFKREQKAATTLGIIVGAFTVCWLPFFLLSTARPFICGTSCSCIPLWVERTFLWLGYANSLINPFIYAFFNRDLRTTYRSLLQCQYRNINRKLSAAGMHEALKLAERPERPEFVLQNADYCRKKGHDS
T6 sequence (P28221 whole entry, species assumed): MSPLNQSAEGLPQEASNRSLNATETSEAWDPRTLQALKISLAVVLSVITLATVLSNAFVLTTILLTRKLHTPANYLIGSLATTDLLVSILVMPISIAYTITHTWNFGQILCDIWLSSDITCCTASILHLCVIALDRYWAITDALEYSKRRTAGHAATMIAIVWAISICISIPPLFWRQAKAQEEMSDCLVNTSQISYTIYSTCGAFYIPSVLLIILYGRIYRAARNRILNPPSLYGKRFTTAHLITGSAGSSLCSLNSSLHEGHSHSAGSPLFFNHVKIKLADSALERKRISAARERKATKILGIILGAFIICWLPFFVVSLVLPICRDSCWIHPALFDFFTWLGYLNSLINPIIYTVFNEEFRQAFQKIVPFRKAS
T4 sequence (P48039 whole entry Y281F): as the sequence (P48039 whole entry) above, with Y281F counted along it
T2 sequence (P48039 whole entry): as the sequence (P48039 whole entry) above
T3 sequence (P48039 whole entry N162Q): as the sequence (P48039 whole entry) above, with N162Q counted along it

As to `COc1ccc2[nH]cc(CCNC(N)=O)c2c1` [Compound 28, [2-(5-methoxy-1H-indol-3-yl)ethyl]urea], the Ki was 16.6 nM in assay [1]; 851 nM in assay [6] (read-out: pKi, 5-HT1A (converted)); 1510 nM in assay [7] (read-out: pKi, 5-HT1D (converted)); 288 nM in [8] (read-out: pKi, 5-HT7A (converted)). The EC50 is 0.0407 nM in assay [2] (SEM, N = 3, read-out: MT1 pEC50 ± SEM (converted)); 0.04 nM in assay [2] (read-out: MT1 EC50); 22.9 nM in [3]; 468 nM in [4]; 4680 nM in assay [5] (normalized individually (basal 0%, maximum 100%), mean ± SEM, minimum of 3 assays, read-out: pEC50, Tango, MT1 Y281F (converted)); 1820 nM in [9]. The EC50 is 0.0447 nM in assay [10] (SEM, N = 3, read-out: MT2 pEC50 ± SEM (converted)) and 0.04 nM in [10] (read-out: MT2 EC50). For the same compound, the “MT1 LE” value in assay [2] (setting [11]) was 0.86 kcal/mol per non-hydrogen atom. Besides, the maximal response (Emax) – broadly, the maximal effect, on the per cent scale that the assay sets – in assay [2] (read-out: MT1 Emax ± SEM) is 95.3 ± 2.6%; in assay [10] (MT2, activation compared to melatonin, read-out: MT2 Emax ± SEM) it was under 70%. Moreover, the “reduction of potency, MT1 Y281F versus WT” value in [5] (Tango) is over 100 fold. In addition, the inhibition at 10 µM in assay [6] (10 μM), in assay [7] (10 μM) and in assay [8] (10 μM) was over 50% in each case. Moreover, the “MT2/MT1 Selectivity” value in assay [10] (Antilog (log(Emax/EC50) MT2 - log (Emax/EC50) MT1), values below 1 = MT1 selectivity) is reported as 0.7 fold. Further, the “MT2 LE” value in [10] (setting [11]) is 0.85 kcal/mol per non-hydrogen atom.
